Data taken from patent US11549123B2, “Plant EPSP synthases and methods of use” (PIONEER HI-BRED INTERNATIONAL, INC., priority 2015, dated 2023).

Legend:
[1] = molecular target: T1, Oryza sativa EPSPS, native, SEQ ID NO:7 (Oryza sativa, UniProt Q93VK6); test: EPSPS substrate saturation kinetics, native rice; assay type: biochemical
T1 sequence (Q93VK6 64-511): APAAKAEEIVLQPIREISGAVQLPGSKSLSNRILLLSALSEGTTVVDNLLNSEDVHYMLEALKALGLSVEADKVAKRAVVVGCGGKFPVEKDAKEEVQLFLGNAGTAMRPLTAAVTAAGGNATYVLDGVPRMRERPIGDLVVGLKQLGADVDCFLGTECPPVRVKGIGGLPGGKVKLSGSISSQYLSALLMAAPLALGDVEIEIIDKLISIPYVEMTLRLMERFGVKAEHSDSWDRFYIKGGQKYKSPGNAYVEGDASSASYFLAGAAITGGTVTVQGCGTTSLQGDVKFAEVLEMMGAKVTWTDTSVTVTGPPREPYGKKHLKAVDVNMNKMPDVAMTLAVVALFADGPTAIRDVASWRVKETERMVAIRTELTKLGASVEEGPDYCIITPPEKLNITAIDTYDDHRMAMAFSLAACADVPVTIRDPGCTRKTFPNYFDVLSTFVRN
Experimental: EPSPS activity was determined by quantifying the phosphate generated from the EPSPS reaction. Release of inorganic phosphate was coupled to reaction with 2-amino-6-mercapto-7-methylpurine ribonucleoside, catalyzed by purine-nucleoside phosphorylase (M R Webb, Proc. Natl. Acad. Sci. 89:4884-4887, 1992). The absorbance change that occurs was monitored at 360 nm, where the extinction is 11,200 M^−1 cm^−1, with a Spectramax plate reader (Molecular Devices). To determine kinetic parameters, the varied substrate was present at seven concentrations (the eighth being the blank, containing no substrate) ranging from 4 to 400 uM and the unvaried substrate present at saturation. Six microliters of 50-fold concentrated stock solutions of the varied substrate were placed in the wells of the 96-well assay plate and reactions were started with the addition of a mixture containing 25 mM Hepes, pH 7, 100 mM KCl, 0.3 mM 2-amino-6-mercapto-7-methylpurine ribonucleosde, 1 uM (1 unit/ml) purine-nucleoside phosphorylase (Sigma N8264) and 200 uM of the non-varied substrate. Reactions were monitored with a Spectramax plate reader. The Michaelis-Menten kinetics protocol of the Spectramax software was customized for the substrate concentrations used. The software returns values of KM and Vmax using the Lineweaver-Burke transformation of the Michaelis-Menten equation. To determine kcat, Vmax (uM/min) was divided by the enzyme concentration (uM). […] KI was then calculated from the following form of the Michaelis-Menten equation for competitive inhibition: KI=KM[I]/(KM app−KM) KM approximates the dissociation constant of the enzyme-substrate complex while kcat is the rate of conversion of substrate to product when the substrate concentration is saturating. kcat/KM is a widely accepted parameter for catalytic efficiency when substrate concentration is low (˜KM). […] The parameter kcat/KM×KI is used to quantify both catalytic efficiency and insensitivity and thus the overall fitness of the enzyme.
Native EPSPS amino acid sequences of rice (Oryza sativa) (SEQ ID NO:7), sorghum (Sorghum halepense) (SEQ ID NO:8), and sunflower (Helianthus annus) (SEQ ID NO:9) including the chloroplast transit peptide sequences were assembled and analyzed for mapping the corresponding amino acid mutations from the maize 868-H6. If complete EPSPS sequences were not available, appropriate adjustments were made based on sequence alignments and conserved residue mapping.
ChloroP Prediction Server (Emanuelsson, O. et al. 1999. Protein Sci. 8(5):978-84) was used to approximate the amino terminus of the mature EPSPS proteins. […] The synthetic genes were cloned into a plasmid vector and expressed, purified and analyzed as described in Example 1.

[2] = molecular target: T2, Zea mays EPSPS, native, SEQ ID NO:2 (Zea mays, UniProt O24566); test: Substrate saturation analysis with glyphosate (Example 8, global fit to competitive inhibition), native maize; assay type: biochemical
T2 construct: E. coli BL21(DE3), Ni-NTA purified
T2 sequence (O24566 with tags, fused parts or gaps): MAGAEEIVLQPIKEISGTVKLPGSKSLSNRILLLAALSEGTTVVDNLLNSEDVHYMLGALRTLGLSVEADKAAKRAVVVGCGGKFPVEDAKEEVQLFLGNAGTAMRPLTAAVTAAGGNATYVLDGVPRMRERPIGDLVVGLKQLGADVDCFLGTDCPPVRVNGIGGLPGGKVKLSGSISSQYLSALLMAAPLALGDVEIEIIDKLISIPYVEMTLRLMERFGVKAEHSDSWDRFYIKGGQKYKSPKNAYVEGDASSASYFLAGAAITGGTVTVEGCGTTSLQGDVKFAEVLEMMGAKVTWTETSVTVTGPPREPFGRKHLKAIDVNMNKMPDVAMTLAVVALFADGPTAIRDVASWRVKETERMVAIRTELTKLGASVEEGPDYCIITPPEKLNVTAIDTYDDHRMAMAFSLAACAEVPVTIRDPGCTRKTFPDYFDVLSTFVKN
Text: Generally, (kcat/KM)*KI is obtained by performing substrate saturation analysis in the absence and presence of inhibitor. However, that analysis takes longer. […] To validate the method, (kcat/KM)*KI was quantified using both methods—traditional (saturation) and the instant method (rapid), for variants of maize 5-enolpyruvylshikimate-3-phosphate synthase (EPSPS) and its competitive inhibitor, glyphosate.
The amino acid sequence of mature Zea mays EPSPS was obtained from GenBank entry CAA44974.1 (SEQ ID NO:2). A nucleotide sequence was created to add an N-terminal methionine and to optimize codon usage for expression in E. coli. The synthesized gene was cloned into an expression vector that provides a T7 promoter driving expression of the protein and a 10× N-terminal histidine tag. Variants selected for this study include native maize EPSPS and variants generated by a gene shuffling cascade described herein. The proteins were expressed in E. coli BL21(DE3) and purified by Ni-NTA resin (Qiagen). Protein concentration was determined by absorbance at 280 nm using an extinction coefficient of 0.676 OD/mg/m L. The proteins were normalized to 0.5 mg/mL for assay.
EPSPS activity was determined by quantifying the phosphate generated by the reaction. Release of phosphate was coupled to reaction with MESG, catalyzed by purine-nucleoside phosphorylase, using standard methods. The absorbance change that occurs was monitored continuously at 360 nm, where the extinction is 11,200 M-1 cm-1, with a Spectramax plate reader (Molecular Devices). […] The enzyme concentration was adjusted so as to generate sufficient signal without exceeding the limit for linear initial reaction rates. The same procedure was repeated with two or three concentrations of glyphosate and the data were processed by non-linear regression analysis with GraphPad Prism (graphpad.com) and globally fitted to the Michaelis-Menten equation for competitive inhibition.
To validate that the rapid method yields an accurate estimation of (kcat/KM)*KI, the results were compared with those obtained by full substrate saturation analysis. […]

[3] = substrate saturation, Zm native

## C=C(OP(=O)(O)O)C(=O)O [PEP, phosphoenolpyruvate]
[1]; PEP varied
  kcat: 30.97 s⁻¹
[1]; read-out: KM (PEP), PEP varied
  Km: 12.6 µM
[2]; [3]
  kcat: 17.27 s⁻¹

## O=C(O)CNCP(=O)(O)O [glyphosate, N-phosphonomethylglycine]
[1]
  Ki: 100 nM
[1]; PEP as substrate, glyphosate as inhibitor
  (kcat/KM)*KI: 18
[2]
  Ki: 130 nM
[2]; [3]
  (kcat/KM)*KI: 12
